Results published in ChEMBL document CHEMBL1201862, “PubChem BioAssay data set” (2004).
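1) Cells in 96-well plates. 2) Compound, 48 h, 5 concentrations. 3) Linear interpolation between surrounding doses. 4) Unreached endpoint = highest concentration. The concentration for 50% growth inhibition is given as GI50.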 The source made the active and inactive calls. Cut-off read from the data, not from the text of the source: active = GI50 up to about 1.1 µM and inactive = higher.

Assays:
Experiment in all cases: growth of human tumour cells (NCI), 48 h
[1] = system: 786-0
[2] = system: A498
[3] = system: A549
[4] = system: ACHN
[5] = system: BT-549
[6] = system: CAKI-1
[7] = system: CCRF-CEM
[8] = system: COLO 205
[9] = system: DU-145
[10] = system: EKVX
[11] = system: HCC 2998
[12] = system: HCT-116
[13] = system: HCT-15
[14] = system: HL-60
[15] = system: HOP-62
[16] = system: HOP-92
[17] = system: HT-29
[18] = system: Hs-578T
[19] = system: IGROV-1
[20] = system: K562
[21] = system: KM12
[22] = system: LOX IMVI
[23] = system: M14
[24] = system: MCF7
[25] = system: MDA-MB-231
[26] = system: MDA-MB-435
[27] = system: MDA-N
[28] = system: MOLT-4
[29] = system: Malme-3M
[30] = system: NCI-H226
[31] = system: NCI-H23
[32] = system: NCI-H460
[33] = system: NCI-H522
[34] = system: NCI/ADR-RES
[35] = system: OVCAR-3
[36] = system: OVCAR-4
[37] = system: OVCAR-5
[38] = system: OVCAR-8
[39] = system: PC-3
[40] = system: RPMI-8226
[41] = system: RXF 393
[42] = system: SF-295
[43] = system: SF-539
[44] = system: SK-MEL-28
[45] = system: SK-MEL-2
[46] = system: SK-MEL-5
[47] = system: SK-OV-3
[48] = system: SN12C
[49] = system: SNB-19
[50] = system: SNB-75
[51] = system: SR
[52] = system: SW-620
[53] = system: T47D
[54] = system: TK-10
[55] = system: U-251
[56] = system: UACC-257
[57] = system: UACC-62
[58] = system: UO-31
[59] = system: SF-268

Measured: GI50

O=[N+]([O-])c1ccc2c(c1)nc(Cc1ccc(Cl)cc1)n2C[C@@H]1CCCN2CCCCC12 (stereo not given in full)
inactive: [1] 11.8 µM | [2] 6.05 µM | [3] 19.2 µM | [4] 13.4 µM | [5] 13 µM | [6] 15.2 µM | [7] 11.8 µM | [8] 10.4 µM | [9] 17.7 µM | [10] 8.39 µM | [11] 7.64 µM | [12] 10.5 µM | [14] 28.9 µM | [15] 20.5 µM | [16] 6.47 µM | [17] 8.59 µM | [18] 13.5 µM | [19] 9.84 µM | [20] 15 µM | [21] 13.5 µM | [22] 13.7 µM | [23] 9.79 µM | [25] 16.5 µM | [26] 14.3 µM | [27] 12.9 µM | [28] 10.9 µM | [29] 9.16 µM | [30] 16.6 µM | [31] 14.9 µM | [32] 14 µM | [33] 12.3 µM | [34] 13.9 µM | [35] 15.5 µM | [36] 9.86 µM | [37] 15.5 µM | [38] 15.1 µM | [39] 20.2 µM | [40] 26.3 µM | [41] 11.6 µM | [42] 15.3 µM | [43] 18.4 µM | [44] 14.6 µM | [45] 15.8 µM | [46] 14.8 µM | [47] 18.9 µM | [48] 13.6 µM | [49] 22.8 µM | [50] 15 µM | [51] 22.7 µM | [52] 20.8 µM | [53] 16.7 µM | [54] 17.6 µM | [55] 18.6 µM | [56] 15.3 µM | [57] 15.2 µM | [58] 1.58 µM
16 µM: [13]
active: [24] 0.54 µM

Cc1nc(C)c(N2CCN([N+](=O)[O-])CC2)c(O)n1
> 100 µM: [13]
inactive: [1] > 100 µM | [2] > 100 µM | [3] > 100 µM | [4] > 100 µM | [5] > 100 µM | [6] > 100 µM | [7] > 100 µM | [8] > 100 µM | [9] > 100 µM | [10] > 100 µM | [11] > 100 µM | [12] > 100 µM | [14] > 100 µM | [15] > 100 µM | [16] > 100 µM | [17] > 100 µM | [18] > 100 µM | [19] > 100 µM | [20] > 100 µM | [21] > 100 µM | [22] > 100 µM | [23] > 100 µM | [24] > 100 µM | [25] > 100 µM | [26] > 100 µM | [27] > 100 µM | [28] > 100 µM | [29] > 100 µM | [30] > 100 µM | [31] > 100 µM | [32] > 100 µM | [33] > 100 µM | [34] > 100 µM | [35] > 100 µM | [36] > 100 µM | [38] > 100 µM | [39] > 100 µM | [40] > 100 µM | [41] > 100 µM | [59] > 100 µM | [42] > 100 µM | [43] > 100 µM | [44] > 100 µM | [46] > 100 µM | [47] > 100 µM | [48] > 100 µM | [49] > 100 µM | [51] > 100 µM | [52] > 100 µM | [53] > 100 µM | [54] > 100 µM | [55] > 100 µM | [56] > 100 µM | [57] > 100 µM | [58] > 100 µM
active: [50] < 0.01 µM
